Reference: paper PMC5933747 (PLoS ONE, 2018)
Like-named read-outs stand apart in the source and are kept apart here.

What was measured:
human NaV1.5 = human NaV1.5 (Homo sapiens, UniProt Q14524); test: IonWorks Quattro (IWQ) electrophysiology, human NaV1.5; assay type: cell-based
human NaV1.4 = human NaV1.4 (Homo sapiens, UniProt P35499); test: IonWorks Quattro (IWQ) electrophysiology, human NaV1.4; assay type: cell-based; conditions: read-out: Ala mutant IWQ IC50 NaV1.4
[1] = human, read-out: Ala mutant IWQ IC50 NaV1.5
[2] = IWQ platform, single-residue Ala scan of JzTx-V, read-out: Ala mutant IWQ IC50 NaV1.5
[3] = human, read-out: Glu mutant IWQ IC50 NaV1.5

human NaV1.5, sequence (Q14524 whole entry): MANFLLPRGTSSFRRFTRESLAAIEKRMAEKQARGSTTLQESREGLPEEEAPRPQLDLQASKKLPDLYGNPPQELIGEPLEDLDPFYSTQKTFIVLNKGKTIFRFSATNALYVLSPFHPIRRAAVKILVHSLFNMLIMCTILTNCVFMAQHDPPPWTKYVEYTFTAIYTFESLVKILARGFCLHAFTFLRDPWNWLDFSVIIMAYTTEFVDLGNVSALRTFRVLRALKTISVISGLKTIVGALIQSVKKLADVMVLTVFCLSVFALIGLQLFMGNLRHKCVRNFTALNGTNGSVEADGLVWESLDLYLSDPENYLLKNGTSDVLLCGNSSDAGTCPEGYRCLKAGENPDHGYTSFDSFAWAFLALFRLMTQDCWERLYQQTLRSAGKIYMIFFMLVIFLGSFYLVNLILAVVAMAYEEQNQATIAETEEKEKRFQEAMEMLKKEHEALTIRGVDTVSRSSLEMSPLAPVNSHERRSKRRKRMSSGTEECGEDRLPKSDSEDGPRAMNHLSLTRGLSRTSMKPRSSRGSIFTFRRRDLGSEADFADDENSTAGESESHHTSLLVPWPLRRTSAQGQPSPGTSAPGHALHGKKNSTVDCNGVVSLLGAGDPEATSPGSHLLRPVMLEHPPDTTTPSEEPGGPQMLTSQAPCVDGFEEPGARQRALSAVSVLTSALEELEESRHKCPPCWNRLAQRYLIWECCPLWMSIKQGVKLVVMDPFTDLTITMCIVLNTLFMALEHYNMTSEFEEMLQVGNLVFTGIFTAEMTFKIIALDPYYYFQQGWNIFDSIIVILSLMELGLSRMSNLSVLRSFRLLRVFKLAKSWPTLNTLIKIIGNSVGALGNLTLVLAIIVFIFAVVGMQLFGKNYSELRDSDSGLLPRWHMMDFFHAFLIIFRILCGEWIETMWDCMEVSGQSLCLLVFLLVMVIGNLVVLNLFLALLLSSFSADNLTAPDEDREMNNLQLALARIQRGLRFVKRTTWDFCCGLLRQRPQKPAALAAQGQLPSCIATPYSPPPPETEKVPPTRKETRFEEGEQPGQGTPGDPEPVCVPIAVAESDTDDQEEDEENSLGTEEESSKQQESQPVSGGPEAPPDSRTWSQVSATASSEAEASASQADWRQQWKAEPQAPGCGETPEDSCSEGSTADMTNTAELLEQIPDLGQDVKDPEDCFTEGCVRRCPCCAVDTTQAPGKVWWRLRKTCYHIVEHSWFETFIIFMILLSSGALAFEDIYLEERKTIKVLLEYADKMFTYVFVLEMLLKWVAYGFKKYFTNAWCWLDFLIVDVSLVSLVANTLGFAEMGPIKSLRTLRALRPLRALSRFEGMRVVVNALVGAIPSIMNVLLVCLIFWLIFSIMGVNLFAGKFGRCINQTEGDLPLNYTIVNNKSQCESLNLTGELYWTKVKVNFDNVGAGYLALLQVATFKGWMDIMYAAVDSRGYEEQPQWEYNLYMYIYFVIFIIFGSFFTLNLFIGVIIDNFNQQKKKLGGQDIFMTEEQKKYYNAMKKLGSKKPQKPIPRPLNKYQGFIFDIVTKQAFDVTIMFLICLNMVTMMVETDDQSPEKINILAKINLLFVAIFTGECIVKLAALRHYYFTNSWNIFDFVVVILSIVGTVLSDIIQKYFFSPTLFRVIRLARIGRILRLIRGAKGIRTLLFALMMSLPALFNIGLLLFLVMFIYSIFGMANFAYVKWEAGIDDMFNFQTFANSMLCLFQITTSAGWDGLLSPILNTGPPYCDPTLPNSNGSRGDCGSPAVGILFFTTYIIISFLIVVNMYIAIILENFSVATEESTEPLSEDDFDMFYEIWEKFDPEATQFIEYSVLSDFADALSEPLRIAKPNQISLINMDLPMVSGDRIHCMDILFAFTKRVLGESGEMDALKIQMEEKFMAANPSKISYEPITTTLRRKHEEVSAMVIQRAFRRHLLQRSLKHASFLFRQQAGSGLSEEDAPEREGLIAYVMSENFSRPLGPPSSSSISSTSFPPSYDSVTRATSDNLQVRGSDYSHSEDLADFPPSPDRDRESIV
human NaV1.4, sequence (P35499 whole entry): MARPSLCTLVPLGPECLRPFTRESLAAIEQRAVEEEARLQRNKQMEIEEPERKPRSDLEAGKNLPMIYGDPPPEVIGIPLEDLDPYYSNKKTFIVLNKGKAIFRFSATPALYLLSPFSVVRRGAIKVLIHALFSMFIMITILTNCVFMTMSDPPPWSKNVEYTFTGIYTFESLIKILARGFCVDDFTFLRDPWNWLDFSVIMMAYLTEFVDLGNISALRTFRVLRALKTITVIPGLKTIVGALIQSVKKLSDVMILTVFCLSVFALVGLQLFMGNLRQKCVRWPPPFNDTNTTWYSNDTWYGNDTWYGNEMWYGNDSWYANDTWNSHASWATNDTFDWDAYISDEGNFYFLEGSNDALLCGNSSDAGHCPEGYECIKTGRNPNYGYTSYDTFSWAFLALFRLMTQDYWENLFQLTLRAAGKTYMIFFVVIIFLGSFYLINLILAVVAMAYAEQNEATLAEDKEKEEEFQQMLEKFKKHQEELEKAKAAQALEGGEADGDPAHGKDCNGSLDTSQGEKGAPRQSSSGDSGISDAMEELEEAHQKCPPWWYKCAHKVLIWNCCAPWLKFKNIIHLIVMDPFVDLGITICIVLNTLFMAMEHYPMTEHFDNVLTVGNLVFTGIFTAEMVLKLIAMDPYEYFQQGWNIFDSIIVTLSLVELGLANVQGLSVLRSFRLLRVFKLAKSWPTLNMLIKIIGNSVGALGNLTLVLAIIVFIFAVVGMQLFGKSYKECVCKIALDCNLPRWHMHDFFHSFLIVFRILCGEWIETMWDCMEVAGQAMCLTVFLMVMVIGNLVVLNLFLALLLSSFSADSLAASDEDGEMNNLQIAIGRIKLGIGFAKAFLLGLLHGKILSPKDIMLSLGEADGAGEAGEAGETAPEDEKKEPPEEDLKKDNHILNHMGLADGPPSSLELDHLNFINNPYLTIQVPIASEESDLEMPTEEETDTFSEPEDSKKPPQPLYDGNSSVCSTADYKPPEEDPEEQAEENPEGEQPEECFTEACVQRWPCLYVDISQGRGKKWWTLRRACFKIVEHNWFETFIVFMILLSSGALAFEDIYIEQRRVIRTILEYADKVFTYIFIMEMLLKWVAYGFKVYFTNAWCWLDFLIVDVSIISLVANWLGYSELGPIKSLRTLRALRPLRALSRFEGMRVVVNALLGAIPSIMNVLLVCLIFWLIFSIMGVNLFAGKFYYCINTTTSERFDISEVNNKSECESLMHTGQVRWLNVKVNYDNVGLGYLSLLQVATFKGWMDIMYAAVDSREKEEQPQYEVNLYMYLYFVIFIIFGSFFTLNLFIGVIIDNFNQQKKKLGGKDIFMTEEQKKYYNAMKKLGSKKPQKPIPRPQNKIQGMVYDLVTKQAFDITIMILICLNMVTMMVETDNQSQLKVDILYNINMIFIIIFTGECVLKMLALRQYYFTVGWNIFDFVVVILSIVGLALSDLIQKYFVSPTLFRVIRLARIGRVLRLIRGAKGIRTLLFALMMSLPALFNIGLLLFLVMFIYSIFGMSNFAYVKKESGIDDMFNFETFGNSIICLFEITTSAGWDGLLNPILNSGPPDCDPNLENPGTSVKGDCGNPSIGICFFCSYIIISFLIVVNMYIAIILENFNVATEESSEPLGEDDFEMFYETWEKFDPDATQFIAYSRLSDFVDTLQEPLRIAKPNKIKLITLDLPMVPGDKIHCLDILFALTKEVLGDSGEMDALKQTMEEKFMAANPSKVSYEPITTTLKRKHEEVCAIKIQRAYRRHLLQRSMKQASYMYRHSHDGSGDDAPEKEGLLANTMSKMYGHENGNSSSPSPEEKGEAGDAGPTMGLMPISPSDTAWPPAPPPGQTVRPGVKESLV

| SMILES | IC50 (human NaV1.5; [1]) [µM] | further results |
| --- | --- | --- |
| CC[C@H](C)[C@H](NC(=O)[C@@H](NC(=O)[C@H](CCCCN)NC(=O)[C@H](CCCNC(=N)N)NC(=O)[C@@H]1CSSC[C@@H]2NC(=O)[C@H](C)NC(=O)[C@H](CCCNC(=N)N)NC(=O)[C@H](CCCCN)NC(=O)[C@H](CO)NC(=O)[C@H](CC(=O)O)NC(=O)[C@@H]3CSSC[C@H](NC(=O)[C@H](CCCNC(=N)N)NC(=O)[C@H](CC(C)C)NC(=O)CNC(=O)[C@H](CCC(=O)O)NC(=O)[C@H](CSSC[C@H](NC(=O)[C@@H](N)Cc4ccc(O)cc4)C(=O)N[C@@H](CCC(N)=O)C(=O)N[C@@H](CCCCN)C(=O)N[C@@H](Cc4c[nH]c5ccccc45)C(=O)N[C@@H](CCSC)C(=O)N[C@@H](C)C(=O)N[C@@H]([C@@H](C)O)C(=O)N3)NC2=O)C(=O)N[C@@H](CCCCN)C(=O)N[C@@H](CC(C)C)C(=O)N[C@@H](Cc2c[nH]c3ccccc23)C(=O)N1)[C@@H](C)CC)C(N)=O [W7 Ala mutant] | > 5 |  |
| CC[C@H](C)[C@H](NC(=O)[C@@H](NC(=O)[C@H](CCCCN)NC(=O)[C@H](CCCNC(=N)N)NC(=O)[C@@H]1CSSC[C@@H]2NC(=O)[C@H](C)NC(=O)[C@H](CCCNC(=N)N)NC(=O)[C@H](CCCCN)NC(=O)[C@H](CO)NC(=O)[C@H](CC(=O)O)NC(=O)[C@@H]3CSSC[C@H](NC(=O)[C@H](CCCNC(=N)N)NC(=O)[C@H](CC(C)C)NC(=O)[C@H](C)NC(=O)[C@H](CCC(=O)O)NC(=O)[C@H](CSSC[C@H](NC(=O)[C@@H](N)Cc4ccc(O)cc4)C(=O)N[C@@H](CCC(N)=O)C(=O)N[C@@H](CCCCN)C(=O)N[C@@H](Cc4c[nH]c5ccccc45)C(=O)N[C@@H](CCSC)C(=O)N[C@@H](Cc4c[nH]c5ccccc45)C(=O)N[C@@H]([C@@H](C)O)C(=O)N3)NC2=O)C(=O)N[C@@H](CCCCN)C(=O)N[C@@H](CC(C)C)C(=O)N[C@@H](Cc2c[nH]c3ccccc23)C(=O)N1)[C@@H](C)CC)C(N)=O [G18 Ala mutant] | > 5 | IC50 (human NaV1.4): 0.265 µM |
| CC[C@H](C)[C@H](NC(=O)[C@@H](NC(=O)[C@H](CCCCN)NC(=O)[C@H](CCCNC(=N)N)NC(=O)[C@@H]1CSSC[C@@H]2NC(=O)[C@H](C)NC(=O)[C@H](CCCNC(=N)N)NC(=O)[C@H](CCCCN)NC(=O)[C@H](CO)NC(=O)[C@H](CC(=O)O)NC(=O)[C@@H]3CSSC[C@H](NC(=O)[C@H](CCCNC(=N)N)NC(=O)[C@H](CC(C)C)NC(=O)CNC(=O)[C@H](CCC(=O)O)NC(=O)[C@H](CSSC[C@H](NC(=O)[C@@H](N)Cc4ccc(O)cc4)C(=O)N[C@@H](CCC(N)=O)C(=O)N[C@@H](CCCCN)C(=O)N[C@@H](Cc4c[nH]c5ccccc45)C(=O)N[C@@H](C)C(=O)N[C@@H](Cc4c[nH]c5ccccc45)C(=O)N[C@@H]([C@@H](C)O)C(=O)N3)NC2=O)C(=O)N[C@@H](CCCCN)C(=O)N[C@@H](CC(C)C)C(=O)N[C@@H](Cc2c[nH]c3ccccc23)C(=O)N1)[C@@H](C)CC)C(N)=O [M6 Ala mutant] | > 5 |  |
| CC[C@H](C)[C@H](NC(=O)[C@@H](NC(=O)[C@H](CCCCN)NC(=O)[C@H](CCCNC(=N)N)NC(=O)[C@@H]1CSSC[C@@H]2NC(=O)[C@H](C)NC(=O)[C@H](CCCNC(=N)N)NC(=O)[C@H](CCCCN)NC(=O)[C@H](CO)NC(=O)[C@H](CC(=O)O)NC(=O)[C@@H]3CSSC[C@H](NC(=O)[C@H](CCCNC(=N)N)NC(=O)[C@H](CC(C)C)NC(=O)CNC(=O)[C@H](CCC(=O)O)NC(=O)[C@H](CSSC[C@H](NC(=O)[C@@H](N)Cc4ccc(O)cc4)C(=O)N[C@@H](CCC(N)=O)C(=O)N[C@@H](CCCCN)C(=O)N[C@@H](Cc4c[nH]c5ccccc45)C(=O)N[C@@H](CCSC)C(=O)N[C@@H](Cc4c[nH]c5ccccc45)C(=O)N[C@@H]([C@@H](C)O)C(=O)N3)NC2=O)C(=O)N[C@@H](CCCCN)C(=O)N[C@@H](C)C(=O)N[C@@H](Cc2c[nH]c3ccccc23)C(=O)N1)[C@@H](C)CC)C(N)=O [L23 Ala mutant] | > 5 |  |
| CC[C@H](C)[C@H](NC(=O)[C@H](CCCCN)NC(=O)[C@H](CCCNC(=N)N)NC(=O)[C@@H]1CSSC[C@@H]2NC(=O)[C@H](C)NC(=O)[C@H](CCCNC(=N)N)NC(=O)[C@H](CCCCN)NC(=O)[C@H](CO)NC(=O)[C@H](CC(=O)O)NC(=O)[C@@H]3CSSC[C@H](NC(=O)[C@H](CCCNC(=N)N)NC(=O)[C@H](CC(C)C)NC(=O)CNC(=O)[C@H](CCC(=O)O)NC(=O)[C@H](CSSC[C@H](NC(=O)[C@@H](N)Cc4ccc(O)cc4)C(=O)N[C@@H](CCC(N)=O)C(=O)N[C@@H](CCCCN)C(=O)N[C@@H](Cc4c[nH]c5ccccc45)C(=O)N[C@@H](CCSC)C(=O)N[C@@H](Cc4c[nH]c5ccccc45)C(=O)N[C@@H]([C@@H](C)O)C(=O)N3)NC2=O)C(=O)N[C@@H](CCCCN)C(=O)N[C@@H](CC(C)C)C(=O)N[C@@H](Cc2c[nH]c3ccccc23)C(=O)N1)C(=O)N[C@@H](C)C(N)=O [I29 Ala mutant] | > 5 |  |
| CC[C@H](C)[C@H](NC(=O)[C@@H](NC(=O)[C@H](CCCCN)NC(=O)[C@H](CCCNC(=N)N)NC(=O)[C@@H]1CSSC[C@@H]2NC(=O)[C@H](C)NC(=O)[C@H](CCCNC(=N)N)NC(=O)[C@H](CCCCN)NC(=O)[C@H](CO)NC(=O)[C@H](CC(=O)O)NC(=O)[C@@H]3CSSC[C@H](NC(=O)[C@H](CCCNC(=N)N)NC(=O)[C@H](CC(C)C)NC(=O)CNC(=O)[C@H](CCC(=O)O)NC(=O)[C@H](CSSC[C@H](NC(=O)[C@H](C)N)C(=O)N[C@@H](CCC(N)=O)C(=O)N[C@@H](CCCCN)C(=O)N[C@@H](Cc4c[nH]c5ccccc45)C(=O)N[C@@H](CCSC)C(=O)N[C@@H](Cc4c[nH]c5ccccc45)C(=O)N[C@@H]([C@@H](C)O)C(=O)N3)NC2=O)C(=O)N[C@@H](CCCCN)C(=O)N[C@@H](CC(C)C)C(=O)N[C@@H](Cc2c[nH]c3ccccc23)C(=O)N1)[C@@H](C)CC)C(N)=O [Y1 Ala mutant] |  | IC50 (human NaV1.5; [2]): 3.07 µM |
| CC[C@H](C)[C@H](NC(=O)[C@@H](NC(=O)[C@H](CCCCN)NC(=O)[C@H](CCCNC(=N)N)NC(=O)[C@@H]1CSSC[C@@H]2NC(=O)[C@H](C)NC(=O)[C@H](CCCNC(=N)N)NC(=O)[C@H](CCCCN)NC(=O)[C@H](C)NC(=O)[C@H](CC(=O)O)NC(=O)[C@@H]3CSSC[C@H](NC(=O)[C@H](CCCNC(=N)N)NC(=O)[C@H](CC(C)C)NC(=O)CNC(=O)[C@H](CCC(=O)O)NC(=O)[C@H](CSSC[C@H](NC(=O)[C@@H](N)Cc4ccc(O)cc4)C(=O)N[C@@H](CCC(N)=O)C(=O)N[C@@H](CCCCN)C(=O)N[C@@H](Cc4c[nH]c5ccccc45)C(=O)N[C@@H](CCSC)C(=O)N[C@@H](Cc4c[nH]c5ccccc45)C(=O)N[C@@H]([C@@H](C)O)C(=O)N3)NC2=O)C(=O)N[C@@H](CCCCN)C(=O)N[C@@H](CC(C)C)C(=O)N[C@@H](Cc2c[nH]c3ccccc23)C(=O)N1)[C@@H](C)CC)C(N)=O [S11 Ala mutant] |  | IC50 (human NaV1.5; [2]): 3.56 µM |
| CC[C@H](C)[C@H](NC(=O)[C@@H](NC(=O)[C@H](CCCCN)NC(=O)[C@H](CCCNC(=N)N)NC(=O)[C@@H]1CSSC[C@@H]2NC(=O)[C@H](C)NC(=O)[C@H](CCCNC(=N)N)NC(=O)[C@H](CCCCN)NC(=O)[C@H](CO)NC(=O)[C@H](CC(=O)O)NC(=O)[C@@H]3CSSC[C@H](NC(=O)[C@H](CCCNC(=N)N)NC(=O)[C@H](CC(C)C)NC(=O)CNC(=O)[C@H](CCC(=O)O)NC(=O)[C@H](CSSC[C@H](NC(=O)[C@@H](N)Cc4ccc(O)cc4)C(=O)N[C@@H](CCC(N)=O)C(=O)N[C@@H](CCCCN)C(=O)N[C@@H](Cc4c[nH]c5ccccc45)C(=O)N[C@@H](CCSC)C(=O)N[C@@H](Cc4c[nH]c5ccccc45)C(=O)N[C@@H](C)C(=O)N3)NC2=O)C(=O)N[C@@H](CCCCN)C(=O)N[C@@H](CC(C)C)C(=O)N[C@@H](Cc2c[nH]c3ccccc23)C(=O)N1)[C@@H](C)CC)C(N)=O [T8 Ala mutant] | > 5 |  |
| CC[C@H](C)[C@H](NC(=O)[C@H](CCCCN)NC(=O)[C@H](CCCNC(=N)N)NC(=O)[C@@H]1CSSC[C@@H]2NC(=O)[C@H](C)NC(=O)[C@H](CCCNC(=N)N)NC(=O)[C@H](CCCCN)NC(=O)[C@H](CO)NC(=O)[C@H](CC(=O)O)NC(=O)[C@@H]3CSSC[C@H](NC(=O)[C@H](CCCNC(=N)N)NC(=O)[C@H](CC(C)C)NC(=O)CNC(=O)[C@H](CCC(=O)O)NC(=O)[C@H](CSSC[C@H](NC(=O)[C@@H](N)Cc4ccc(O)cc4)C(=O)N[C@@H](CCC(N)=O)C(=O)N[C@@H](CCCCN)C(=O)N[C@@H](Cc4c[nH]c5ccccc45)C(=O)N[C@@H](CCSC)C(=O)N[C@@H](Cc4c[nH]c5ccccc45)C(=O)N[C@@H]([C@@H](C)O)C(=O)N3)NC2=O)C(=O)N[C@@H](CCCCN)C(=O)N[C@@H](CC(C)C)C(=O)N[C@@H](Cc2c[nH]c3ccccc23)C(=O)N1)C(=O)N[C@@H](CCC(=O)O)C(N)=O [I29 Glu mutant] |  | IC50 (human NaV1.5; [3]): > 5 µM |
| CC[C@H](C)[C@H](NC(=O)[C@@H](NC(=O)[C@H](CCCCN)NC(=O)[C@H](CCCNC(=N)N)NC(=O)[C@@H]1CSSC[C@@H]2NC(=O)[C@H](CCC(=O)O)NC(=O)[C@H](CCCNC(=N)N)NC(=O)[C@H](CCCCN)NC(=O)[C@H](CO)NC(=O)[C@H](CC(=O)O)NC(=O)[C@@H]3CSSC[C@H](NC(=O)[C@H](CCCNC(=N)N)NC(=O)[C@H](CC(C)C)NC(=O)CNC(=O)[C@H](CCC(=O)O)NC(=O)[C@H](CSSC[C@H](NC(=O)[C@@H](N)Cc4ccc(O)cc4)C(=O)N[C@@H](CCC(N)=O)C(=O)N[C@@H](CCCCN)C(=O)N[C@@H](Cc4c[nH]c5ccccc45)C(=O)N[C@@H](CCSC)C(=O)N[C@@H](Cc4c[nH]c5ccccc45)C(=O)N[C@@H]([C@@H](C)O)C(=O)N3)NC2=O)C(=O)N[C@@H](CCCCN)C(=O)N[C@@H](CC(C)C)C(=O)N[C@@H](Cc2c[nH]c3ccccc23)C(=O)N1)[C@@H](C)CC)C(N)=O [A14 Glu mutant] |  | IC50 (human NaV1.5; [3]): > 5 µM |
